Results published in PMC4273943 (Molecular microbiology, 2011).

Target: CRP homolog RC1_3788 (CgrA) (Rhodospirillum centenum, UniProt B6IXV7)
Assay: isothermal titration calorimetry
Type: binding

`Nc1nc2c(ncn2[C@@H]2O[C@@H]3COP(=O)(O)O[C@H]3[C@H]2O)c(=O)[nH]1` [cGMP] gave a Kd of 38.5 nM.
